# Measured values reported in ChEMBL document CHEMBL5050843, “Amide substituted thiazoles as protein secretion inhibitors” (2019).
# Columns and labels:
# [1] = Inhibition of constitutively active VCAMss-Gluc secretion in human Flp-In-T-REx-293 cells measured by Gaussia luciferase reporter gene method; assay type: functional, cell-based
# [2] = Inhibition of constitutively active PR1ss-Gluc secretion in human Flp-In-T-REx-293 cells measured by Gaussia luciferase reporter gene method; assay type: functional, cell-based
SMILES,IC50 [1] [µM],IC50 [2] [µM]
Cc1ccc(C(=O)Nc2nc(C(C)(C)C)cs2)s1,7.65,> 25
CC(C)(C)c1csc(NC(=O)Cc2cccs2)n1,5.7,> 80
CC(C)(C)c1csc(NC(=O)c2cc3cc(Br)ccc3s2)n1,> 25,> 25
CC(C)(C)c1csc(NC(=O)c2cc3cc(C4=CCCCC4)ccc3s2)n1,16.2,> 25
CC(C)(C)c1csc(NC(=O)CN2CCCCC2)n1,> 25,> 25
CC(C)(C)c1csc(NC(=O)C2CCCc3ccccc32)n1 (stereo not drawn),> 25,> 25
CC(C)(C)c1csc(NC(=O)[C@@H]2CCCO2)n1,> 25,> 25
CC(C)(C)c1csc(NC(=O)c2cc3cc(Cl)ccc3s2)n1,9.27,> 25
CC(C)(C)c1csc(NC(=O)c2csc3ccccc23)n1,22.6,> 25
CC(C)(C)c1csc(NC(=O)Cc2ccccc2Cl)n1,18.4,> 25
CC(C)(C)c1csc(NC(=O)c2cc3cc(C(F)(F)F)ccc3s2)n1,16.5,> 25
Cc1cc(C(=O)N(C)c2nc(C(C)(C)C)cs2)cs1,> 25,> 25
CC(C)(C)c1csc(NC(=O)c2cc3cc(-c4cccc(Cl)c4)ccc3s2)n1,5.02,> 25
CC(C)(C)c1csc(NC(=O)Cc2ccc(Cl)c(Cl)c2)n1,2.64,> 25
CC(C)(C)c1csc(NC(=O)Cn2cnc3ccccc32)n1,> 25,> 25
Cc1csc(C(=O)Nc2nc(C(C)(C)C)cs2)c1,17.1,> 25
Cc1cc(C(=O)Nc2nc(C3CC3)cs2)cs1,> 25,> 25
CC(C)(C)c1csc(NC(=O)c2ccc3ocnc3c2)n1,> 25,> 25
CC(C)(C)c1nc(NC(=O)Cc2csc3ccc(Cl)cc23)sc1Cl,11.8,> 25

SMILES,IC50 [1] [µM],IC50 [2] [µM]
CC(C)c1cccc(C(=O)Nc2nc(C(C)(C)C)cs2)c1,> 25,> 25
CC(C)(C)c1csc(NC(=O)Cc2ccc(Cl)cc2)n1,4.88,> 25
CC(C)(C)c1csc(NC(=O)c2cccc(C(F)(F)F)c2)n1,7.6,> 80
Cc1ccc(C(=O)Nc2nc(C(F)(F)F)cs2)s1,> 25,> 25
CC(C)(C)c1csc(NC(=O)c2cccc(CN3CCOCC3)c2)n1,> 25,> 25
CC(C)(C)c1csc(NC(=O)Cc2csc3ccccc23)n1,1.76,> 25
CC(C)(C)c1csc(NC(=O)c2cc3cccc(Cl)c3s2)n1,3.22,> 25
CC[C@@H](C(=O)Nc1nc(C(C)(C)C)cs1)c1ccccc1,9.54,> 25
CC#Cc1ccc2sc(C(=O)Nc3nc(C(C)(C)C)cs3)cc2c1,4.97,> 25
CC(C)(C)c1csc(NC(=O)COC2CCCCC2)n1,> 25,> 25
CC(C)(C)c1csc(NC(=O)c2ccc3c(c2)CCCO3)n1,6.09,> 25
COc1cccc(C(=O)Nc2nc(C(C)(C)C)cs2)c1,> 25,> 25
CC(C)(C)c1csc(NC(=O)Cc2cccc(Br)c2)n1,5.71,> 25
Cc1c(C(=O)Nc2nc(C(C)(C)C)cs2)sc2ccc(Cl)cc12,> 25,> 25
CC(C)(C)c1csc(NC(=O)Cc2cccc(C#N)c2)n1,15.4,> 25
CC(C)(C)c1csc(NC(=O)C2=CCCCC2)n1,23.7,> 25
CC(C)(C)c1csc(NC(=O)c2cc3cc(-c4cccnc4)ccc3s2)n1,> 25,> 25
CC(C)(C)c1csc(NC(=O)CN2CCOCC2)n1,> 25,> 25
CCCc1ccc2sc(C(=O)Nc3nc(C(C)(C)C)cs3)cc2c1,14.1,> 25

SMILES,IC50 [1] [µM],IC50 [2] [µM]
Cn1c(C(=O)Nc2nc(C(C)(C)C)cs2)cc2ccccc21,2.21,> 25
CC(C)(C)c1csc(NC(=O)c2sc3ccccc3c2Cl)n1,> 25,> 25
CC(C)(C)c1csc(NC(=O)C(C)(C)c2ccc(Cl)c(Cl)c2)n1,6.49,> 25
CC(C)(C)c1csc(NC(=O)c2cc3cc(C(N)=O)ccc3s2)n1,> 25,> 25
CC(C)(C)c1csc(NC(=O)Cc2ccccc2)n1,24.1,> 25
CCOC(=O)CC(C)(C)c1csc(NC(=O)Cc2cc(Cl)cc(Cl)c2)n1,8.93,> 25
CC(C)(C)c1csc(NC(=O)C2CCOCC2)n1,> 25,> 25
CC(C)(C)c1csc(NC(=O)c2ccccc2)n1,10.4,> 80
CC(C)(C)c1csc(NC(=O)c2cccc(N3CCCC3)c2)n1,> 25,> 25
CC(C)(C)c1csc(NC(=O)Cc2cccc(S(C)(=O)=O)c2)n1,> 25,> 25
CC(C)(C)c1csc(NC(=O)C2CCc3ccccc3C2)n1 (stereo not drawn),11.8,> 25
CC(C)(C)c1csc(NC(=O)c2ccc3c(c2)OCCN3)n1,> 25,> 25
CC(C)(C)c1csc(NC(=O)C(C)(C)c2cccc(Cl)c2)n1,8.6,> 25
CC(C)(C)c1csc(NC(=O)Cc2cccc(Cl)c2)n1,7.85,> 25
Cc1cc(C(=O)Nc2nc(C(C)(C)C)cs2)sc1C,9.08,> 25
CC(C)(C)c1csc(NC(=O)c2cc3cc(C4=CCCC4)ccc3s2)n1,> 25,> 25
CC(C)(C)c1csc(NC(=O)c2ccnnc2)n1,> 25,> 25
O=C(Cc1csc2ccc(Cl)cc12)Nc1nc(Cc2ccccc2)cs1,19.9,> 25
CC(C)(C)c1csc(NC(=O)C2(c3cccc(Cl)c3)CC2)n1,19.6,> 25

# Other lines, results leading:
IC50 [1] [µM],IC50 [2] [µM],SMILES
17.4,> 25,CC(C)(C)c1csc(NC(=O)CCc2ccccc2)n1
> 25,> 25,CC(C)(C)c1csc(NC(=O)C2CCOC2)n1 (stereo not drawn)
> 25,> 25,CC(C)(C)c1csc(NC(=O)C2=CCCC2)n1
5.7,> 25,CC(C)(C)c1csc(NC(=O)c2cc3c(Cl)cccc3s2)n1
> 25,> 25,CC(C)(C)c1csc(CNC(=O)Cc2csc3ccccc23)n1
11.1,> 25,C[C@@H](C(=O)Nc1nc(C(C)(C)C)cs1)c1ccccc1
9.82,> 25,CC(C)(C)c1csc(NC(=O)CC2CCCC2)n1
4.93,> 25,CC(C)(C)c1csc(NC(=O)c2cc3ccccc3s2)n1
11,> 25,CC(C)(C)c1csc(NC(=O)c2cc3cc(-c4ccccc4)ccc3s2)n1
> 25,> 25,C#Cc1ccc2sc(C(=O)Nc3nc(C(C)(C)C)cs3)cc2c1
> 25,> 25,CC(C)(CCO)c1csc(NC(=O)Cc2cc(Cl)cc(Cl)c2)n1
8.15,> 25,CC(C)(C)c1csc(NC(=O)C2(c3cccc(Cl)c3)CCCC2)n1
8.4,> 25,CC(C)(C)c1csc(NC(=O)c2cccc(Cl)c2)n1
8.14,> 25,CCCCCc1ccc2sc(C(=O)Nc3nc(C(C)(C)C)cs3)cc2c1
17,> 25,CC(C)(C)c1csc(NC(=O)C2CCCC2)n1
> 25,> 25,CC(C)(C)c1csc(NC(=O)c2ncn[nH]2)n1
14,> 25,CC(C)(C)c1csc(NC(=O)c2cc3cc(-c4ccc(Cl)cc4)ccc3s2)n1
14.7,> 25,CC(C)(C)c1csc(NC(=O)C(C)(C)c2ccccc2)n1
> 25,> 25,CC(C)(C)c1csc(NC(=O)c2cccc(C#N)c2)n1

IC50 [1] [µM],IC50 [2] [µM],SMILES
6.81,> 25,CC(C)(C)c1csc(NC(=O)Cc2cccc(C(F)(F)F)c2)n1
> 25,> 25,CC(C)(C)c1csc(NC(=O)c2ccc3cn[nH]c3c2)n1
> 80,> 80,Cc1cc(C(=O)Nc2nc(C(C)(C)C)cs2)no1
1.69,> 25,CC(C)(C)c1csc(NC(=O)Cc2cc(Cl)cc(Cl)c2)n1
11.2,> 25,CC(C)(C)c1csc(NC(=O)C2Cc3ccccc3C2)n1
> 25,> 25,C[C@H](C(=O)Nc1nc(C(C)(C)C)cs1)c1ccccc1
6.09,> 25,CC(C)(C)c1csc(NC(=O)CC2CCCCC2)n1
23.8,> 25,CC(C)(C)c1csc(NC(=O)c2cc3ccccc3o2)n1
20.7,> 25,CC(C)(C)c1csc(NC(=O)c2ccc3[nH]ncc3c2)n1
> 25,> 25,CC(C)(C)c1csc(NC(=O)c2ccccc2Cl)n1
> 25,> 25,CC(C)(C)c1csc(NC(=O)c2cccnn2)n1
10.3,> 25,COc1cccc(CC(=O)Nc2nc(C(C)(C)C)cs2)c1
> 25,> 25,CC(C)(C)c1csc(NC(=O)c2scc3c2CCCC3)n1
> 25,> 25,CC(C)(C)c1csc(NC(=O)Cn2ncc3ccccc32)n1
> 25,> 25,CC(C)(C)c1csc(NC(=O)c2cc3ccc(Cl)cc3s2)n1
> 25,> 25,CC(C)(C)c1csc(NC(=O)c2cc3cc(C4CCCC4)ccc3s2)n1
> 25,> 25,CCc1csc(NC(=O)c2csc(C)c2)n1
8.75,> 25,CC(C)(C)c1csc(NC(=O)Cn2ccc3ccccc32)n1
